Earlier results, collected in publication PMC5731893, “Therapeutic potential of an anti-angiogenic multimodal biomimetic peptide in hepatocellular carcinoma” (Oncotarget, 2017).

Key:
[1] = tested on: HCC tumors
Excerpt: Angiogenesis is a common feature of many solid tumors and plays a critical role in growth and metastatic progression of HCC. […] Aflibercept speci ... || The dual inhibition of cancer and endothelial cell functions may synergize through the reduction of resistance pathways normally associated with anti-angiogenic therapies. While angiogenesis is important for the exponential growth of cancerous tissue, non-angiogenic processes for tumor vascularization may help bypass the effects of strictly angiogenesis-based therapies. In particular, vessel co-option, or the hijacking of existing vasculature for tumor growth, is observed in models of HCC and has been associated with the diminishing efficacy of extended sorafenib treatment. Tumors from orthoto ...

[2] = tested on: HCC
Excerpt: Liver cancer is one of the top causes of cancer related mortality in the world and the incidence has been increasing in the US for decades. Surgical resection and/or liver transplantation are the curative options for early diagnosed hepatocellular cancers. However, the prognosis for advanced stages of the disease is dismal owing to a lack of chemotherapeutic options. A series of anti-angiogenic drugs have been undergoing clinical trials for some time but they have not had much success because of drug related toxicity and partly because many cases of HCC are refractory to different ... || Compared to normal liver cells, HCC tumor cells are often associated with the dysregulation of numerous cellular signaling pathways. Expression changes or mutations of growth factor signaling components, specifically c-Met and insulin-like growth factor 1 receptor (IGF1R) are well documented in the pathogenesis of HCC [10]. Overexpression of c-Met and IGF1R is observed in 20-48% or 33% of HCC tumors, respectively, as are increases in the expression of the IGF1R ligand IGF-II [11]. Downstream effectors of insulin receptor substrates 1 (IRS-1) and 2 (IRS-2) have likewise been r ...

[3] = tested on: HCC cells
Excerpt: Liver cancer is one of the top causes of cancer related mortality in the world and the incidence has been increasing in the US for decades. Surgical resection and/or liver transplantation are the curative options for early diagnosed hepatocellular cancers. However, the prognosis for advanced stages of the disease is dismal owing to a lack of chemotherapeutic options. A series of anti-angiogenic drugs have been undergoing clinical trials for some time but they have not had much success because of drug related toxicity and partly because many cases of HCC are refractory to different ...

CNC(=O)c1cc(Oc2ccc(NC(=O)Nc3ccc(Cl)c(C(F)(F)F)c3)cc2)ccn1 [Sorafenib]
vessel co-option vs angiogenic mechanisms after administration ([1]; orthotopic mouse models of HCC): significant preference towards vessel co-option over angiogenic mechanisms
side effects ([2]; human, in vivo): clinically significant
effect on sensitivity to apoptotic stimuli [3]: sensitize the cells to apoptotic stimuli
effect on HCC proliferation ([3]; within the S/G2/M phases of the cell cycle): slow HCC proliferation

CNC(=O)c1cc(Oc2ccc(NC(=O)Nc3ccc(Cl)c(C(F)(F)F)c3)c(F)c2)ccn1 [regorafenib]
increase of median survival ([2]; advanced HCC that progress under sorafenib, phase III): 3 months

O=C1NC(=O)[C@@H](c2cn3c4c(cccc24)CCC3)[C@@H]1c1c[nH]c2ccccc12 [tivantinib]
effect on overall survival ([2]; phase II, c-Met positive HCC): significantly improve overall survival

aflibercept: soluble decoy construct containing a fusion of VEGFR1 and VEGFR2 ligand binding domains
effect on tumor growth ([1]; several mouse models of HCC): inhibit tumor growth
